Test results as given in PMC10504015, “Design, synthesis, and enzyme inhibition evaluation of some novel Mono- and Di-O-β-D-Glycopyranosyl Chalcone analogues with molecular docking studies” (Turkish Journal of Chemistry, 2022).

Tests used:
Type in all cases: biochemical
tyrosinase = tyrosinase (Agaricus bisporus, UniProt C7FF04); test: Tyrosinase from mushroom inhibitory effect (L-DOPA substrate, 475 nm); settings: phosphate buffer pH 6.8, read-out: IC50 on tyrosinase (Tyr)
Protocol: The tyrosinase inhibitory effects of the newly synthesized compounds were performed using microplate reader with minor modifications according to the standard method. […] The activity of tyrosinase solution was adjusted as 250 U/mL in phosphate buffer (pH 6.8, 100 mM). For each wells, 100 μL buffer (pH 6.8, 100 mM), 20 μL of tyrosinase (0.2 U/mL), and 20 μL of compounds were added and incubated 20 min. After incubation, 20 μL of 3,4-dihydroxy-L-phenylalanine (3 mM) was pipetted into wells. Absorbance was measured at 475 nm.

AChE = AChE (Electrophorus electricus, UniProt O42275); settings: electric eel AChE, Tris-HCl buffer pH 8.0
Protocol: The AChE from electric eel inhibitory effects of the newly synthesized compounds were performed using microplate reader with minor modification according to the standard method. […] The activity of AChE solution was adjusted as 0.2 U/mL in Tris-HCl buffer (pH 8.0, 50 mM). For each wells, 50 μL buffer (pH 8.0, 50 mM), 125 μL 5,5-dithio-bis(2-nitrobenzoic)acid (3 mM), 25 μL of AChE (0.2 U/mL) and 25 μL of compounds were added and incubated 20 min at room temperature. After incubation, 25 μL of acetylthiocholine iodide (15 mM) was pipetted into wells. Absorbance was measured at 412 nm.

α-glycosidase = test: α-Glycosidase inhibitory effect (p-nitrophenyl-α-D glucopyranoside substrate); settings: enzyme 2 U/mL, phosphate buffer pH 6.8, 37 °C; nd: not detected
Protocol: α-glycosidase inhibitory effect of the newly synthesized samples that were solvated in DMSO was performed with some minor modifications of the standard method. The activity degree of the enzyme solution was adjusted as 2 U/mL in phosphate buffer (pH 6.8, 50 mM). For each test tube, 150 μL of the sample, 150 μL of the enzyme (2 U/mL), and 150 μL of buffer were pipetted. After the incubation for 15 min at 37 °C, 150 μL of p-nitrophenyl-α-D glucopyranoside (20 mM, Sigma-Aldrich) was added and then their absorbance was monitored for 20 min at 400 nm.

tyrosinase, sequence (C7FF04 1-392 limits assumed): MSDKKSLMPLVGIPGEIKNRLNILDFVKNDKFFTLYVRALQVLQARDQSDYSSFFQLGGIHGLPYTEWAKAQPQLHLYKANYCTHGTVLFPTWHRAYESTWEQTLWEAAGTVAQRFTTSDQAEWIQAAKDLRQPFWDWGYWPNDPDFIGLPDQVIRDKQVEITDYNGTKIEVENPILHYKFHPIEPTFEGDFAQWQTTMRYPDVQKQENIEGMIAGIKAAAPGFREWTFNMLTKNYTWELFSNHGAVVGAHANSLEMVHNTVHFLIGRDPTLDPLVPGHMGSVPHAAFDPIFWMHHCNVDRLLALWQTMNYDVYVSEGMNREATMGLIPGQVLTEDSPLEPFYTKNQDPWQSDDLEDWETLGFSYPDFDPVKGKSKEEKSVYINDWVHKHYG
AChE, sequence (O42275 24-633): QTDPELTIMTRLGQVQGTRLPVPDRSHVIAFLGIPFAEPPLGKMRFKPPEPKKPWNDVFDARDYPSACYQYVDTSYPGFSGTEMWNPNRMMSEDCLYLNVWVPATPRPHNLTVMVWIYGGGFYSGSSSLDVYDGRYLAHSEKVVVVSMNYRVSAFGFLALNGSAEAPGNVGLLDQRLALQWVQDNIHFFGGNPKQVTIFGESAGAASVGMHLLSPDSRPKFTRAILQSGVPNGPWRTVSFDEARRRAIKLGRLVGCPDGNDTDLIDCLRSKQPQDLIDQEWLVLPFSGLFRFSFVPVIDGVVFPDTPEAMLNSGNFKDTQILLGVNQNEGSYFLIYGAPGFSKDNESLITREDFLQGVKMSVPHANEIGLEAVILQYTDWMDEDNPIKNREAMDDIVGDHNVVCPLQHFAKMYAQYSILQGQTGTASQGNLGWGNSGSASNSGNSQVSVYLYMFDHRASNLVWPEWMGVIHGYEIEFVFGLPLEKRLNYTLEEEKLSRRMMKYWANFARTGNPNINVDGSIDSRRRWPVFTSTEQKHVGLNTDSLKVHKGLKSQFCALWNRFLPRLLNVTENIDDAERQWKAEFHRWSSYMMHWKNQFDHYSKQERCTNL

SMILES | IC50 (tyrosinase) [µM] | IC50 (AChE) [µM] | IC50 (α-glycosidase) [mM]
COc1cc(C(=O)/C=C/c2ccccc2O[C@@H]2O[C@H](CO)[C@@H](O)[C@H](O)[C@H]2O)ccc1O[C@@H]1O[C@H](CO)[C@@H](O)[C@H](O)[C@H]1O [8a, (2E)-1-(4-O-β-D-glucopyranosyl-3-methoxyphenyl)-3-(2-O-β-D-glucopyranosylphenyl)-prop-2-en-1-one] | > 100 | > 100 | 
COc1cc(C(=O)/C=C/c2ccc(O[C@@H]3O[C@H](CO)[C@@H](O)[C@H](O)[C@H]3O)cc2)ccc1O[C@@H]1O[C@H](CO)[C@@H](O)[C@H](O)[C@H]1O [8c, (2E)-1-(4-O-β-D-glucopyranosyl-3-methoxyphenyl)-3-(4-O-β-D-glucopyranosylphenyl)-prop-2-en-1-one] | 53.6 ± 2.31 | > 100 | 
COc1cc(C(=O)/C=C/c2cccc(O)c2)ccc1O[C@@H]1O[C@H](CO)[C@@H](O)[C@H](O)[C@H]1O [7b, (2E)-1-(4-O-β-D-glucopyranosyl-3-methoxyphenyl)-3-(3-hydroxyphenyl)prop-2-en-1-one] | 82.5 ± 4.5 | > 100 | 
COc1ccccc1/C=C/C(=O)c1cc(OC2OC(CO)C(O)C(O)C2O)cc(OC2OC(CO)C(O)C(O)C2O)c1 [17a, (2E)-1-(3,5-di-O-β-D-glucopyranosylphenyl)-3-(2-methoxyphenyl)-prop-2-en-1-one] | > 100 | > 100 | 23.6 ± 0.9
COc1cccc(/C=C/C(=O)c2cc(OC3OC(CO)C(O)C(O)C3O)cc(OC3OC(CO)C(O)C(O)C3O)c2)c1 [17b, (2E)-1-(3,5-di-O-β-D-glucopyranosylphenyl)-3-(3-methoxyphenyl)-prop-2-en-1-one] | > 100 | > 100 | 16.6 ± 0.62
COc1cc(C(=O)/C=C/c2cccc(OC3OC(CO)C(O)C(O)C3O)c2)ccc1OC1OC(CO)C(O)C(O)C1O [8b, (2E)-1-(4-O-β-D-glucopyranosyl-3-methoxyphenyl)-3-(3-O-β-D-glucopyranosylphenyl)-prop-2-en-1-one] | > 100 | 81.8 ± 3.4 | 
COc1ccccc1/C=C/C(=O)c1cc(O)cc(O[C@@H]2O[C@H](CO)[C@@H](O)[C@H](O)[C@H]2O)c1 [16a, (2E)-1-(3-O-β-D-glucopyranosyl-5-hyroxyphenyl)-3-(2-methoxyphenyl)-prop-2-en-1-one] | > 100 | > 100 | 12.87 ± 0.09
COc1ccc(/C=C/C(=O)c2cc(O)cc(O[C@@H]3O[C@H](CO)[C@@H](O)[C@H](O)[C@H]3O)c2)cc1 [16c, (2E)-1-(3-O-β-D-glucopyranosyl-5-hydroxyphenyl)-3-(4-methoxyphenyl)-prop-2-en-1-one] | > 100 | > 100 | 6.8 ± 0.06
COc1cccc(/C=C/C(=O)c2cc(O)cc(O[C@@H]3O[C@H](CO)[C@@H](O)[C@H](O)[C@H]3O)c2)c1 [16b, (2E)-1-(3-O-β-D-glucopyranosyl-5-hyroxyphenyl)-3-(3-methoxyphenyl)-prop-2-en-1-one] | > 100 | > 100 | 6.6 ± 0.05
COc1cc(C(=O)/C=C/c2ccccc2O)ccc1O[C@@H]1O[C@H](CO)[C@@H](O)[C@H](O)[C@H]1O [7a, (2E)-1-(4-O-β-D-glucopyranosyl-3-methoxyphenyl)-3-(2-hydroxyphenyl)prop-2-en-1-one] | > 100 | > 100 | 
COc1ccc(/C=C/C(=O)c2cc(OC3OC(CO)C(O)C(O)C3O)cc(OC3OC(CO)C(O)C(O)C3O)c2)cc1 [17c, (2E)-1-(3,5-di-O-β-D-glucopyranosylphenyl)-3-(4-methoxyphenyl)-prop-2-en-1-one] | 34.4 ± 1.74 | > 100 | 16.3 ± 0.63
COc1cc(C(=O)/C=C/c2ccc(O)cc2)ccc1OC1OC(CO)C(O)C(O)C1O [7c, (2E)-1-(4-O-β-D-glucopyranosyl-3-methoxyphenyl)-3-(4-hydroxyphenyl)prop-2-en-1-one] | 11.1 ± 0.55 | > 100 | 
